# ChEMBL document CHEMBL1201862, “PubChem BioAssay data set” (2004)
# Active and inactive are the calls of the source.
# What was measured:
# [1] = target: T1, RNA-binding protein pos-1 (Caenorhabditis elegans, UniProt G5EF15); assay: disruptors of C. elegans POS-1 RNA interaction – biochemical, fluorescence polarization, dose response (AID 1964);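 note: purified POS-1 fused to maltose binding protein made in E. coli; potency of compounds blocking POS-1 binding to fluorescent RNA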
# T1 sequence (G5EF15 whole entry): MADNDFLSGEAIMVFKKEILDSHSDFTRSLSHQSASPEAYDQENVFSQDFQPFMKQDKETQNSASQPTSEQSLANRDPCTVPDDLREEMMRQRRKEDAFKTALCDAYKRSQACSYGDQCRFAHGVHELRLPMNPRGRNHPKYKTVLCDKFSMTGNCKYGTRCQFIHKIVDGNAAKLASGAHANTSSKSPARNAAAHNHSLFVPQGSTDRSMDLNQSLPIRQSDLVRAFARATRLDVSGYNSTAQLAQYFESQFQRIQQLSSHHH
# [2] = target: UDP-galactopyranose mutase (Mycobacterium tuberculosis, UniProt P9WIQ1); assay: Inhibitors of Mycobacterium tuberculosis UDP-galactopyranose mutase (UGM) enzyme Measured in Biochemical System Using Plate Reader - 2105-02_Inhibitor_Dose_CherryPick_Activity. [Related pubchem assays (depositor defined):AID504439]
# [3] = target: T2, Zinc finger protein mex-5 (Caenorhabditis elegans, UniProt Q9XUB2); assay: potency of MEX-5 RNA-binding blockers – biochemical, C. elegans, fluorescence polarization, dose response (AID 1960)
# T2 sequence (Q9XUB2 whole entry): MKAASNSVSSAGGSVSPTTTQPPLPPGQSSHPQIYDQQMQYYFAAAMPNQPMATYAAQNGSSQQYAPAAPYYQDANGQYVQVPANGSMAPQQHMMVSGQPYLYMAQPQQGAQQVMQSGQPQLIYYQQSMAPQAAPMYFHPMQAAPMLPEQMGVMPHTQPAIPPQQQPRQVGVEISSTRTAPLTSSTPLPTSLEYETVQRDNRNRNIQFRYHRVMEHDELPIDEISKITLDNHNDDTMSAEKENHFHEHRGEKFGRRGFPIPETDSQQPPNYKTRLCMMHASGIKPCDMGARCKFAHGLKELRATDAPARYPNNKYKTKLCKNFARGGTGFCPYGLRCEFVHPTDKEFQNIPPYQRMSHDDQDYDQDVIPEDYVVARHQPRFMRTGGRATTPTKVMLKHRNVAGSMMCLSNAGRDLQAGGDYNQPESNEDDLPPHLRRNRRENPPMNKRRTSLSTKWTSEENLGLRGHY
# [4] = target: T3, Corticotropin-releasing factor receptor 2/Corticotropin-releasing factor-binding protein (Homo sapiens, UniProt P24387+Q13324); assay: activators of CRF receptor 2 with binding protein – uHTS hits, confirmation (AID 602473); format: functional; conditions: read-out: EC50_Mean
# T3 sequence (Q13324 whole entry): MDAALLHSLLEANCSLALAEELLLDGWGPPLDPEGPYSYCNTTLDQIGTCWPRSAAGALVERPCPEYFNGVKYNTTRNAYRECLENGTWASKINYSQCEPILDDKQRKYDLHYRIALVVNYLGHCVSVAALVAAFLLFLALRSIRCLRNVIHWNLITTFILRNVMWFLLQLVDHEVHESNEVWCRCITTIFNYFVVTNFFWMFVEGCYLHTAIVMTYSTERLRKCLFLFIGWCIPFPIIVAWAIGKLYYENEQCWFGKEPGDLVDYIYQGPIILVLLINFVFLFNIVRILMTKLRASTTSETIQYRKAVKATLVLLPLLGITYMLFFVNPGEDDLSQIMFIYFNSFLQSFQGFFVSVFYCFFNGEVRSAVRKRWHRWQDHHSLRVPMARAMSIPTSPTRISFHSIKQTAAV
# T3 sequence (P24387 whole entry): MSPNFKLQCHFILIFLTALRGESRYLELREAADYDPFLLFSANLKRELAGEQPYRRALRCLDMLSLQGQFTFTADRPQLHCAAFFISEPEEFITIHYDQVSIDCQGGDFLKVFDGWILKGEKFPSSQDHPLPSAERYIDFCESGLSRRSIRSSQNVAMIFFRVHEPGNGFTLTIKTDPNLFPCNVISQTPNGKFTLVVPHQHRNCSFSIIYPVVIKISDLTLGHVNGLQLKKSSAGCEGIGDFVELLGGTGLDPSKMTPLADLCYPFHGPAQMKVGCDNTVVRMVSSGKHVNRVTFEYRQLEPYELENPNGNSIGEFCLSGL
# [5] = target: T4, Endoribonuclease toxin MazF (Escherichia coli K-12, UniProt P0AE70); assay: substrate-only fluorescence increase artefacts – biochemical, single-stranded RNase substrate, counter-screen for MazEF activator project, dose response (AID 588502); format: functional
# T4 sequence (P0AE70 whole entry): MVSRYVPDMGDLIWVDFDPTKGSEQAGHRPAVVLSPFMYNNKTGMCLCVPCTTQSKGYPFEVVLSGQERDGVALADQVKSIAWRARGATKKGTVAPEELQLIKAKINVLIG
# [6] = target: T4, Endoribonuclease toxin MazF; assay: activation of MazEF endoribonuclease cleavage – biochemical, fluorescence, single-stranded RNA substrate, uHTS hits, dose response (AID 588481); format: functional
# [7] = T. cruzi infection blockers in NIH3T3 cells – beta-gal luminescence, NIH3T3 host cells, confirmation (AID 2630); format: functional, cell-based; conditions: Mus musculus
# [8] = target: NS3 (Hepatitis C virus, UniProt A3EZJ3); assay: PubChem AID 2173; parameters: species or system Hepacivirus hominis
# [9] = target: T5, Glutathione-S-transferase (Schistosoma japonicum, UniProt Q26513); assay: GST-antibody interaction or FRET quenching – biochemical, TR-FRET, artefact control for Vif-APOBEC3G degradation inhibitor project, dose response (AID 1117362); format: functional
# T5 sequence (Q26513 whole entry): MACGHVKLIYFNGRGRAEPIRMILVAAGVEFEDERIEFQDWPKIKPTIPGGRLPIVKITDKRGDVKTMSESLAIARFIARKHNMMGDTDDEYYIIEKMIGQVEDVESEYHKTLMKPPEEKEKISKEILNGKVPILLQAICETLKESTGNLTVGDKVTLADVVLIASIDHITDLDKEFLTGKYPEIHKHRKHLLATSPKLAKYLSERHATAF
# [10] = target: T6, Lysine-specific demethylase 4A (Homo sapiens, UniProt O75164); assay: inhibition of JMJD2A H3K9me3 demethylation – biochemical, DELFIA europium, cherry-picked samples, selectivity assay for GASC-1 inhibitor project, dose response (AID 488840)
# T6 sequence (O75164 whole entry): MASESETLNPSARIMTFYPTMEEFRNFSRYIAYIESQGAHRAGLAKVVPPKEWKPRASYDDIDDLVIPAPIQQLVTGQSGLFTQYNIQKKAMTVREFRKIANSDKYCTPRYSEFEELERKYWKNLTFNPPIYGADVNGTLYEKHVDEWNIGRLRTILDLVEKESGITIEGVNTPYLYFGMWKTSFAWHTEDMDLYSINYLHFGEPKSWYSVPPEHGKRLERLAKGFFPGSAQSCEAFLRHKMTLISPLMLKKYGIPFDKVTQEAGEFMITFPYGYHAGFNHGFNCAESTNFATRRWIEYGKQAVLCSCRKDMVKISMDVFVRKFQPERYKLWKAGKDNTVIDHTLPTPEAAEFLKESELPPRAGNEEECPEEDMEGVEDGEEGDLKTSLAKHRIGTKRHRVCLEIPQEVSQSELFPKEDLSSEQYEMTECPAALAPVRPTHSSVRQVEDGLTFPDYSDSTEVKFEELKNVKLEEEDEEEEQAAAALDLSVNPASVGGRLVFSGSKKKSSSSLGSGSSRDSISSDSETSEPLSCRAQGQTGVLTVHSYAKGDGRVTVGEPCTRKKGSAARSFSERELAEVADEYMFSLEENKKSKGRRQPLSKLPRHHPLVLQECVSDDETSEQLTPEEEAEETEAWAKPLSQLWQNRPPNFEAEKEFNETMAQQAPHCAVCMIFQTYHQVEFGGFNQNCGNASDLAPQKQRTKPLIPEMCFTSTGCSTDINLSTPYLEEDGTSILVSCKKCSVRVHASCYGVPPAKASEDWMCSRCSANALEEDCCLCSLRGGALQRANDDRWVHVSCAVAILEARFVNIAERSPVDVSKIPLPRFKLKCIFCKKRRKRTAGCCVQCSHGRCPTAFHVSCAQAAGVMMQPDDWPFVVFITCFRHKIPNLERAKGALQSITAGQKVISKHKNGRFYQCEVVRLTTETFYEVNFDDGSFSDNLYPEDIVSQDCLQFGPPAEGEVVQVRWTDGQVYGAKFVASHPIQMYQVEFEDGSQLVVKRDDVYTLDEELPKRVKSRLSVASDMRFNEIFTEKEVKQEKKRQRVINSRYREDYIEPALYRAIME
# [11] = target: T7, Voltage-gated N-type calcium channel alpha-1B subunit/Amyloid beta A4 precursor protein-binding family A member 1 (Homo sapiens, UniProt Q00975+Q02410); format: protein assay
# [12] = target: T7, Voltage-gated N-type calcium channel alpha-1B subunit/Amyloid beta A4 precursor protein-binding family A member 1; assay: disruptors of Mint-PDZ/N-type channel peptide interaction – biochemical, HTRF, set 2, SAR follow-up (AID 434980); format: functional
# [13] = target: T7, Voltage-gated N-type calcium channel alpha-1B subunit/Amyloid beta A4 precursor protein-binding family A member 1; format: protein assay; remark: listed apart in the source
# [14] = target: Troponin, cardiac muscle (Homo sapiens, UniProt P19429+P45379+P63316); assay: compounds desensitizing RTF to calcium – biochemical, fluorescence, cardiac regulated thin filaments, triplicate IC50, dose response (AID 504742); format: protein-complex assay
# [15] = target: T7, Voltage-gated N-type calcium channel alpha-1B subunit/Amyloid beta A4 precursor protein-binding family A member 1; assay: disruptors of Mint-PDZ/N-type channel peptide interaction – biochemical, HTRF, SAR follow-up (AID 2489); format: functional
# [16] = target: Lysine-specific demethylase 4C (Homo sapiens, UniProt Q9H3R0); assay: inhibition of JMJD2C H3K9me3 demethylation – biochemical, DELFIA europium, cherry-picked samples, dose response (AID 488835); format: functional
# [17] = target: T8, Short transient receptor potential channel 4 (Mus musculus, UniProt Q9QUQ5); assay: calcium entry via TRPC4 opening agents – cell-based, HEK293 TRPC4/mu-opioid, Fluo-4 calcium, dose response (AID 434937); format: functional
# T8 sequence (Q9QUQ5 whole entry): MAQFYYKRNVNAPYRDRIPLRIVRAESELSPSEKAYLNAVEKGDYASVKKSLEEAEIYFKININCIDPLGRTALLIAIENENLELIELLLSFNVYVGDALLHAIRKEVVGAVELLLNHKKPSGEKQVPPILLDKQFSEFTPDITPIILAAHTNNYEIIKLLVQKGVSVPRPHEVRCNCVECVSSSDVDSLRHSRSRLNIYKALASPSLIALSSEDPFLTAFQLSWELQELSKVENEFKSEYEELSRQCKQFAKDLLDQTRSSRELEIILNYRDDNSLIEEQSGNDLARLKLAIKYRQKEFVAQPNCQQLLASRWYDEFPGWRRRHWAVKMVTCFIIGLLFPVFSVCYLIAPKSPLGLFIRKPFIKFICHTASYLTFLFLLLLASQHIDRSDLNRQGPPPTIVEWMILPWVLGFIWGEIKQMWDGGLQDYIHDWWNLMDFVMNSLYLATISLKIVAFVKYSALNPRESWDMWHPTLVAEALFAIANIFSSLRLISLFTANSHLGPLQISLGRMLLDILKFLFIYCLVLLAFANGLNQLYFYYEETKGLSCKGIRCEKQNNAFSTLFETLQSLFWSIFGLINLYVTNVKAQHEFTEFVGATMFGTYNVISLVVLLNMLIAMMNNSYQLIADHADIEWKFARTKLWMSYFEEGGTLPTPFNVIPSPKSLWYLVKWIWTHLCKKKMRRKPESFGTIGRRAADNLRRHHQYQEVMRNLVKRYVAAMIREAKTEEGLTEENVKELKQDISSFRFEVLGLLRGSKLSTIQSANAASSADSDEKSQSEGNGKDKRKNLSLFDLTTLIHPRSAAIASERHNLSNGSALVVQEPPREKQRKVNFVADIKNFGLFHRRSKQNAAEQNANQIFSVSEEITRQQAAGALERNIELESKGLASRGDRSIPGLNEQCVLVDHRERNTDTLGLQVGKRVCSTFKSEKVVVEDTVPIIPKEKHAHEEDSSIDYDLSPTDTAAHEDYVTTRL
# [18] = target: T9, CAAX prenyl protease 2 (Saccharomyces cerevisiae S288c, UniProt Q03530); format: biochemical
# T9 sequence (Q03530 whole entry): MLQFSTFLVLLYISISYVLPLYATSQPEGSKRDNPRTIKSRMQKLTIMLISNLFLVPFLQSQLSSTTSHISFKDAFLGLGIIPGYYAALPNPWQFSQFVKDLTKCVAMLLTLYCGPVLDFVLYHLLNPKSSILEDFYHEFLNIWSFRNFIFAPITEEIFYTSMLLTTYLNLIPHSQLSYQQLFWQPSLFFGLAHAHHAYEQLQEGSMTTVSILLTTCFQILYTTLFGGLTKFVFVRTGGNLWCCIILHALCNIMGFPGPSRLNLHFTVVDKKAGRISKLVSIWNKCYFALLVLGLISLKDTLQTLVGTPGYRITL
# [19] = target: CAAX prenyl protease 1 (Saccharomyces cerevisiae S288c, UniProt P47154); assay: yeast CAAX protease Ste24 inhibition – biochemical, S. cerevisiae, plate reader, cherry-pick, dose response (AID 488815)
# [20] = target: T8, Short transient receptor potential channel 4; assay: block of DAMGO-driven TRPC4 calcium entry – cell-based, HEK293 TRPC4/mu-opioid, Fluo-4 calcium, dose response (AID 434942); format: functional;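 note: potency of inhibitors blocking the TRPC4 calcium response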
# T7 sequence (Q00975 whole entry): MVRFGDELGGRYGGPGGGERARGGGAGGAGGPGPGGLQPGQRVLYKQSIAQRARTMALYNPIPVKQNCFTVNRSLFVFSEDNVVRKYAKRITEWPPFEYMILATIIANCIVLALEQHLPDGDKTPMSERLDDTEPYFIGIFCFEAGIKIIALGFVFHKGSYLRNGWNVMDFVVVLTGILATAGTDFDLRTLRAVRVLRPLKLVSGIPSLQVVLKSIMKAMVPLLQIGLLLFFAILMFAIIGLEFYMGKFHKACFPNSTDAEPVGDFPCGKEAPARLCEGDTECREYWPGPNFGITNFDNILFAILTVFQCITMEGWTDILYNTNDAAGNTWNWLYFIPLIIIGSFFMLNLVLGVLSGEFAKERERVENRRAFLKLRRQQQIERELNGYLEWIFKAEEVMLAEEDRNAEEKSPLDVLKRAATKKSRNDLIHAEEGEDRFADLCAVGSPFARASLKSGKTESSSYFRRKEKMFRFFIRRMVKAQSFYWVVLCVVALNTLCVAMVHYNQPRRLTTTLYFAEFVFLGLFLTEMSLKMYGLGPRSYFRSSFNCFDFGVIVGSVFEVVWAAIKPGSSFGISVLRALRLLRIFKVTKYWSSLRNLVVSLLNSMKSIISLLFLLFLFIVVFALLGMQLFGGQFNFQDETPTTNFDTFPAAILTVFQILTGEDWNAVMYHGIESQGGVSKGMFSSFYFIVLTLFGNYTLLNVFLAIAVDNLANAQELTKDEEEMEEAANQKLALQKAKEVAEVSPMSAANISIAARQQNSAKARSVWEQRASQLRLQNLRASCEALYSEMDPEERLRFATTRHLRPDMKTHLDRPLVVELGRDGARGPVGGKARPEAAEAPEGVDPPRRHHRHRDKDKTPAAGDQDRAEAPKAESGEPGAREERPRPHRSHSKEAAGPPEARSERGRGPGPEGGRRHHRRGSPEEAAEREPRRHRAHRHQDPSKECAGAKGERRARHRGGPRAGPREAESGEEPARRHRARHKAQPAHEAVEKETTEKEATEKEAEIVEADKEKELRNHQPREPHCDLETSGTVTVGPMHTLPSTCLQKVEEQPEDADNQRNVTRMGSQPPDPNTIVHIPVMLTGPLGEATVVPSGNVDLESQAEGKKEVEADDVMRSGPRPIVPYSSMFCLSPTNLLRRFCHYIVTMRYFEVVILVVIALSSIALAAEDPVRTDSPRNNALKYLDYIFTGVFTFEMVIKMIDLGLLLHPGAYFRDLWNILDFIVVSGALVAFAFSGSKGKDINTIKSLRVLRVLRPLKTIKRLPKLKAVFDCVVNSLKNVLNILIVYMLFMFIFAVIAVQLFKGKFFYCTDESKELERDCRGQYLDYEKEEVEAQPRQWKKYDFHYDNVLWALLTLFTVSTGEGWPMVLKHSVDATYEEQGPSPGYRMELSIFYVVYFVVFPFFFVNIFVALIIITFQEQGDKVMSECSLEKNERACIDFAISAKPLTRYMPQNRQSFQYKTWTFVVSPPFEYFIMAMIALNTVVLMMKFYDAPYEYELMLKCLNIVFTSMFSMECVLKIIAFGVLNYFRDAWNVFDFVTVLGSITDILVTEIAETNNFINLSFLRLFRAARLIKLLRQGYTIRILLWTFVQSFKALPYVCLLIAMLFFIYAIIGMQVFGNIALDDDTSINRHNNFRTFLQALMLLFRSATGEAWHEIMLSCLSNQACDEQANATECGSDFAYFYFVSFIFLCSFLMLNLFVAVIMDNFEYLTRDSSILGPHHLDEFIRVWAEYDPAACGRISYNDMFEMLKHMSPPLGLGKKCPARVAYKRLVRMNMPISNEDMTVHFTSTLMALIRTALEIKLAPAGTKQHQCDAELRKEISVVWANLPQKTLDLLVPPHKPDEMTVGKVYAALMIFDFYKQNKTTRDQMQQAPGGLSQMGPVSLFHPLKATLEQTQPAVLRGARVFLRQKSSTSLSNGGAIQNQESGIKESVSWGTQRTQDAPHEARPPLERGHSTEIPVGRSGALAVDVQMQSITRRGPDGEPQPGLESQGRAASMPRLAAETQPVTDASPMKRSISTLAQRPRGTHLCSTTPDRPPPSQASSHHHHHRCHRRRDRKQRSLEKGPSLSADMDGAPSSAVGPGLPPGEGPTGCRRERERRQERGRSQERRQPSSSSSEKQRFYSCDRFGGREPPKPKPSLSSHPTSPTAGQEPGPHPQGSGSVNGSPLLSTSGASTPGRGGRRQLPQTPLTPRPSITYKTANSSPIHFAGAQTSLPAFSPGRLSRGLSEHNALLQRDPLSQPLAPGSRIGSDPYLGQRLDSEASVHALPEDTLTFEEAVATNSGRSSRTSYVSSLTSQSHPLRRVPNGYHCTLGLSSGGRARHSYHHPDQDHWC
# T7 sequence (Q02410 whole entry): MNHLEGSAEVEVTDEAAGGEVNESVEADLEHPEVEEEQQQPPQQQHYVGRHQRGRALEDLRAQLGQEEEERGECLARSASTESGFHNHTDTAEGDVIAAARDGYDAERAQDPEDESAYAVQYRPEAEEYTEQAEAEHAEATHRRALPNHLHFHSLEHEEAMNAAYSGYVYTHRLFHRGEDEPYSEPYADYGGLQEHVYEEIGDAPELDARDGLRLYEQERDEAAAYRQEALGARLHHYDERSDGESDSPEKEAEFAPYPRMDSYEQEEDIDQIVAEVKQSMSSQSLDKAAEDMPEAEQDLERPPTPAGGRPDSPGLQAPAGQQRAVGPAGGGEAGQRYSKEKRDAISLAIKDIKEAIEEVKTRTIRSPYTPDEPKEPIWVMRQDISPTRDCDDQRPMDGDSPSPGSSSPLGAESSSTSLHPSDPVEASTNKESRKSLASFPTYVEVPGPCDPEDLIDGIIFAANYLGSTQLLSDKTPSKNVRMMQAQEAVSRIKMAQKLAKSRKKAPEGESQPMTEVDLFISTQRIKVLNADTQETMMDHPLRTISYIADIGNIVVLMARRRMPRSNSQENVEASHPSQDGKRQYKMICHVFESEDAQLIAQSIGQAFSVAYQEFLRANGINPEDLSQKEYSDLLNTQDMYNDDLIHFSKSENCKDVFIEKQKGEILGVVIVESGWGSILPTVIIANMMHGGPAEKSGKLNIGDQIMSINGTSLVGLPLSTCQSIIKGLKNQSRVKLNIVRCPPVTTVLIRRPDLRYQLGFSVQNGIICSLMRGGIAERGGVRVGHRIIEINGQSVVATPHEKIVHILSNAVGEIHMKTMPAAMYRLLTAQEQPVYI
# Sequence of Lysine-specific demethylase 4C (Q9H3R0 whole entry): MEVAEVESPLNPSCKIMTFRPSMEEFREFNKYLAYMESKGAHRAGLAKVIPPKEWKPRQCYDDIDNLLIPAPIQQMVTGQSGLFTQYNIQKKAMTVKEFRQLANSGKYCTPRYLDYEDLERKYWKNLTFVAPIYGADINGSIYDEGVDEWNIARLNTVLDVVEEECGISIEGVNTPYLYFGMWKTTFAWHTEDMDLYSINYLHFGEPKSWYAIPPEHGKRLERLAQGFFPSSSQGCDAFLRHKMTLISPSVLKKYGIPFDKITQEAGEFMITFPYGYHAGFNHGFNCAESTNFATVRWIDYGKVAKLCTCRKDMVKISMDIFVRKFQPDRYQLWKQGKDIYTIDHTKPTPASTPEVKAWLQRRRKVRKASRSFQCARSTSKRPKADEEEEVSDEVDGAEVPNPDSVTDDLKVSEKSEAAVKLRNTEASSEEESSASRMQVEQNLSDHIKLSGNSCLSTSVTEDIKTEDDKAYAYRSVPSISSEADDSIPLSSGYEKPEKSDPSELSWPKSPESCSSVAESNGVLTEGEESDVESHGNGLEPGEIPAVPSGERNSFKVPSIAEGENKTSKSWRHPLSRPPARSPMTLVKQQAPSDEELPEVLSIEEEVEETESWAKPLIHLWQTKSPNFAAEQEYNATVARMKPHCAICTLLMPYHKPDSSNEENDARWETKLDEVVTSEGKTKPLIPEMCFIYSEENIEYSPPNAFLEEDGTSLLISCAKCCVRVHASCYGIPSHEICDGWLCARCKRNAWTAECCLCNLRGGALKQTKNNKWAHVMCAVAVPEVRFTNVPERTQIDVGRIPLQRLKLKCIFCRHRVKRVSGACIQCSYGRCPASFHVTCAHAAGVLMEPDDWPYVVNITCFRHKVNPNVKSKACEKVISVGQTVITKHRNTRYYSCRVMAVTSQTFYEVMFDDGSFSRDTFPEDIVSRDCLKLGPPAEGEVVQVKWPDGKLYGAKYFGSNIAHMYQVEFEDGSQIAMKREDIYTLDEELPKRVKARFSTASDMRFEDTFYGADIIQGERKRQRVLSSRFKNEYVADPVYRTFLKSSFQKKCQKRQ
# Sequence of CAAX prenyl protease 1 (P47154 whole entry): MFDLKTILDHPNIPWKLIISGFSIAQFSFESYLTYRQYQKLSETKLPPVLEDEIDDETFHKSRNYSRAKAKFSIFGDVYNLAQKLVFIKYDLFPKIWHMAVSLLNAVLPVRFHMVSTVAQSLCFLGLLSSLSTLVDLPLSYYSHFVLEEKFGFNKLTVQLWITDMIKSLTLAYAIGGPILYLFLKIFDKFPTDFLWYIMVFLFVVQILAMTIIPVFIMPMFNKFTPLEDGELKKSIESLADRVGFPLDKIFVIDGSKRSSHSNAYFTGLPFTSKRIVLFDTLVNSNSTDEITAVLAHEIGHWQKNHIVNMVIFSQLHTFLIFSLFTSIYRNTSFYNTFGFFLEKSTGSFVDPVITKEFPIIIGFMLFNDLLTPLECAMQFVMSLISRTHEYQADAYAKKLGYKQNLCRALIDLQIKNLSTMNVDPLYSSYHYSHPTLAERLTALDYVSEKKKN
# Sequence of UDP-galactopyranose mutase (P9WIQ1 whole entry): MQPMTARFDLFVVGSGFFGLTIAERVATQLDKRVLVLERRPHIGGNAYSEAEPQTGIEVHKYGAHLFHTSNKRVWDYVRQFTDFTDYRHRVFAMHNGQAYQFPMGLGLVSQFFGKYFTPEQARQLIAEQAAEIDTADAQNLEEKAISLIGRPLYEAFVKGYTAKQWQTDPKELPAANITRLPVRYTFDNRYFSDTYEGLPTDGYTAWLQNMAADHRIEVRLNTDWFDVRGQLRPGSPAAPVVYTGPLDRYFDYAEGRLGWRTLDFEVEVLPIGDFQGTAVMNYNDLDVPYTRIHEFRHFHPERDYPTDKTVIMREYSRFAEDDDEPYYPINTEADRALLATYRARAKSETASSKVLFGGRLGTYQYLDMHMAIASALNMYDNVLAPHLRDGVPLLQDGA
compound,measurement,setting,value
COc1ccc2nc3ccccc3nc2c1NC(=O)c1ccc(Cl)cc1Cl,EC50,[1],3.15 µM (inconclusive)
same,AC50,[2],171 µM (active)
same,EC50,[3],3.71 µM (inconclusive)
same,EC50,[4],6.99 µM (active)
same,EC50,[5],27.6 µM (inactive)
same,EC50,[6],> 99 µM (inactive)
Cc1ccc(NC(=O)CCC(=O)N/N=C/c2ccco2)c(C)c1,EC50,[7],195 µM (inactive)
Nc1c(C(=O)NC2CC2)sc2nc3c(c(-c4ccco4)c12)CC/C3=C/c1ccco1,IC50,[8],5.48 µM (active)
same,IC50,[9],54 µM (active)
same,AC50,[10],6.07 µM (active)
same,IC50,[11],13.1 µM (active)
same,IC50,[12],1.04 µM (active)
same,IC50,[13],3.99 µM (active)
same,IC50,[14],> 71.5 µM (inactive)
same,IC50,[15],17.2 µM (active)
same,AC50,[16],4.71 µM (active)
O=C(C[n+]1cc2ccccc2c2ccccc21)c1ccccc1,EC50,[17],4.22 µM (active)
same,AC50,[18],5.91 µM (active)
same,AC50,[19],10.2 µM (active)
same,EC50,[20],3.76 µM (active)
